The values below come from patent publication US10709692B2, “Isoxazolidine derived inhibitors of receptor interacting protein kinase 1 (RIPK1)” (Denali Therapeutics Inc., priority 2015, dated 2020).

The target of this assay is T1, receptor interacting protein kinase 1 (GST-hRIPK1 (8-327)) (Homo sapiens, UniProt Q13546).
T1 construct: GST-hRIPK1 (8-327) enzyme was generated by Proteros GmbH by Baculovirus expression system
T1 sequence (Q13546 8-327): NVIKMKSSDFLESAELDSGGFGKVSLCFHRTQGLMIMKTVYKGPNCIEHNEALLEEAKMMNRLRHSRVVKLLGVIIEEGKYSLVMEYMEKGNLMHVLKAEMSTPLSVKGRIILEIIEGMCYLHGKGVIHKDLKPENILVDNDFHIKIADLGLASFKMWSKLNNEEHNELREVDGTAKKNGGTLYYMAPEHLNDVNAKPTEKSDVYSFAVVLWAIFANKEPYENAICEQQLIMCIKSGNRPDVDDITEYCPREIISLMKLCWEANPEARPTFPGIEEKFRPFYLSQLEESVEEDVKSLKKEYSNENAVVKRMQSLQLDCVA
In words: Fluorescent Polarization Binding (FP Binding) assay. As to conditions: 10 nM GST-hRIPK1 (8-327), 5 nM fluorescent-labeled ligand, 30 min at RT. As for the experimental part:
Fluorescent Polarization Binding (FP Binding) assay (Berger S. B. et al. (2015) Cell Death Discovery, 1: 15009; Maki J. L. et al. (2012) Anal Biochem., 427(2): 164-174) was performed in polystyrene low volume 384-well black plate, at Room Temperature (RT) in a final volume of 10.1 μl/well using 10 nM of GST-hRIPK1 (8-327) enzyme and 5 nM of fluorescent-labeled ligand (14-(2-{[3-({2-{[4-(cyanomethyl)phenyl]amino}-6-[(5-cyclopropyl-1H-pyrazol-3-yl)amino]-4-pyrimidinyl}amino) propyl]amino}-2-oxoethyl)-16,16,18,18-tetramethyl-6,7,7a,8a,9,10,16,18-octahydrobenzo[2″3″]indolizino[8″, 0.7″:5′,6′]pyrano[3′,2′:3,4]pyrido[1,2-a]indol-5-ium-2-sulfonate.
Test compounds were serially diluted in DMSO at 100 fold final concentrations in the assay (1% DMSO final). In each well of a 384-well Plate were dispensed 0.1 μL of compound solution (or DMSO for controls) followed by 5 μL of GST-hRIPK1 (8-327) at twice the final concentrations in assay-buffer (50 mM HEPES pH 7.5, 10 mM NaCl, 50 mM MgCl2, 0.02% CHAPS, 0.5 mM DTT and 0.01% Pluronic F127). For negative control the enzyme addition was replaced by assay buffer only.
After addition of 5 μL of fluorescent-labeled ligand at twice the final concentrations in assay buffer, the plate was incubated at RT for 30 min. At the end, the binding was measured as FP value with the Envision (PerkinElmer) plate reader using filter for an excitation λ=531 nm FP and an emission λ=595 nm FP (S & P-pol).
Test compound inhibition was expressed as percent inhibition of internal assay controls. For concentration response curves, normalized data is fit and IC50 determined using XL-fit (IDBS) for Excel. IC50 were averaged to determine a mean value, for a minimum of two independent experiments.
Receptor interacting protein kinase 1 activity of exemplary compounds was determined according to the above general procedures.
Receptor interacting protein kinase 1 activity of certain compounds was determined according to the above general procedures.

Each structure is given as a SMILES string. “And” between values parts separate entries of the source, which are not always exact repeats. Equal entries are not always repeated.

Usually IC50 stands for the point on the concentration scale where inhibition reaches its midpoint. The low end stands for greater potency, the high end for weaker potency. Molecule `O=C(N1OCC[C@H]1c1ccc(F)cc1)C1(C(F)(F)F)CCCC1` [Compound 29, (3S)-3-(4-fluorophenyl)-2-[1-(trifluoromethyl)cyclo-pentanecarbonyl]-1,2-oxazolidine] registered an IC50 of less than 1000 nM.

With `CC(C)(C)C(=O)N1OCCC1c1ccc(F)cc1` (single isomer, unassigned) [Compound 74, 1-[3-(4-Fluorophenyl)-1,2-oxazolidin-2-yl]-2,2-dimethylpropan-1-one], the IC50 was greater than 10000 nM.

The molecule `O=C(C1C2COCC21)N1OCC[C@H]1c1ccc(F)nc1` (stereo partly drawn) [Compound 160, 2-fluoro-5-[(3S)-2-{3-oxabicyclo[3.1.0]hexane-6-carbonyl}-1,2-oxazolidin-3-yl]pyridine] displayed a half-inhibitory concentration (IC50) of 1000 to 10000 nM.

Molecule `CC(C)(C)C(=O)N1OCC[C@@H]1c1c(F)cccc1F` [Compound 67, 1-[(3R)-3-(2,6-Difluorophenyl)-1,2-oxazolidin-2-yl]-2,2-dimethylpropan-1-one] came in with a half-maximal inhibitory concentration (IC50) of 1000 to 10000 nM.

As to `CC(C)(C)C(=O)N1OCC[C@H]1c1ccnc(C(F)F)c1` [Compound 175, 1-[(3S)-3-[2-(difluoromethyl)pyridin-4-yl]-1,2-oxazolidin-2-yl]-2,2-dimethylpropan-1-one], the half-inhibitory concentration (IC50) is less than 1000 nM.

In turn, `CC1CC1C(=O)N1OCC[C@H]1c1ccc(C#N)cc1` (single isomer, unassigned) [Compound 215] yielded a half-inhibitory concentration (IC50) of less than 1000 nM.

`CC1(C(=O)N2OCC[C@H]2c2ccc(F)cc2)CC1(F)F` (single isomer, unassigned) [Compound 115] yielded an IC50 of less than 1000 nM.

As for `Cc1cnc([C@@H]2CCON2C(=O)C(C)C(F)(F)F)cn1` (single isomer, unassigned) [Compound 130], the IC50 is less than 1000 nM.

In the case of `O=C(C1CC1(F)F)N1OCC[C@H]1c1ccc(F)cc1` (single isomer, unassigned) [Compound 237], the IC50 is less than 1000 nM.

The molecule `CC(C)(C)C(=O)N1OCC[C@H]1c1cccnc1F` [Compound 66, 1-[(3S)-3-(2-Fluoropyridin-3-yl)-1,2-oxazolidin-2-yl]-2,2-dimethylpropan-1-one] yielded a 50% inhibitory concentration (IC50) of less than 1000 nM.

The molecule `CC(C)(C(=O)N1OCC[C@H]1c1ccc(F)cc1)S(C)(=O)=O` [Compound 194, 1-[(3S)-3-(4-fluorophenyl)-1,2-oxazolidin-2-yl]-2-methanesulfonyl-2-methylpropan-1-one] displayed a concentration for half-maximal inhibition (IC50) of 1000 to 10000 nM.

The molecule `CC1(C(=O)N2OCC[C@H]2c2ccc(F)nc2)CCOC1` (single isomer, unassigned) [Compound 141] came in with an IC50 of less than 1000 nM.

`CC(C(=O)N1OCC[C@H]1c1ccc(F)cc1)C(F)(F)F` (single isomer, unassigned) [Compound 95]: the IC50 was less than 1000 nM.

`CC(C)(C)C(=O)N1OCC[C@H]1c1ccc(C(F)(F)F)nc1` [Compound 120] showed a half-maximal inhibitory concentration (IC50) of less than 1000 nM.

As to `Cn1cc([C@@H]2CCON2C(=O)C(C)(C)C(F)F)cn1` [Compound 198, (S)-3,3-difluoro-2,2-dimethyl-1-(3-(1-methyl-1H-pyrazol-4-yl)isoxazolidin-2-yl)propan-1-one], the IC50 was < 1000 nM and 51 nM.

In turn, `CC1(C(=O)N2OCC[C@H]2c2ccc(F)nc2)CC1(F)F` (single isomer, unassigned) [Compound 112] displayed an IC50 of less than 1000 nM.

`CC(C)(C)C(=O)N1OCC[C@H]1c1ccc(F)c(F)c1` [Compound 50, 1-[(3S)-3-(3,4-Difluorophenyl)-1,2-oxazolidin-2-yl]-2,2-dimethylpropan-1-one] had a half-maximal inhibitory concentration (IC50) of less than 1000 nM.

Regarding `CC1(C(=O)N2OCC[C@H]2c2ccc(F)nc2)CCOC1` (single isomer, unassigned) [Compound 142], the IC50 is less than 1000 nM.

In turn, `CC(C)(CC#N)C(=O)N1OCC[C@H]1c1ccc(C(F)F)nc1` [Compound 131, 4-(3S)-3-[6-(difluoromethyl)pyridin-3-yl]-1,2-oxazolidin-2-yl-3,3-dimethyl-4-oxobutanenitrile] gave an IC50 of less than 1000 nM.

With `O=C(N1OCC[C@H]1c1ccc(F)nc1)C1(C2CC2)CC1` [Compound 159, 5-[(3S)-2-(1-cyclopropylcyclopro-panecarbonyl)-1,2-oxazolidin-3-yl]-2-fluoropyridine], the IC50 was less than 1000 nM.

On to `O=C(C1CC1(F)F)N1OCC[C@H]1c1ccc(F)cc1` (single isomer, unassigned) [Compound 236], for which the 50% inhibitory concentration (IC50) is less than 1000 nM.

In turn, `CC(OC(F)(F)F)C(=O)N1OCC[C@H]1c1ccc(F)nc1` (single isomer, unassigned) [Compound 184] returned an IC50 of less than 1000 nM.

In turn, `Cc1ccc([C@@H]2CCON2C(=O)C(C)(C)C(F)F)cn1` [Compound 202, 3,3-difluoro-2,2-dimethyl-1-[(3S)-3-(6-methylpyridin-3-yl)-1,2-oxazolidin-2-yl]propan-1-one] registered an IC50 of less than 1000 nM.

Molecule `COCC1(C(=O)N2OCC[C@H]2c2ccccc2)CC1` [Compound 76, (3S)-2-[1-(Methoxymethyl)cyclo-propanecarbonyl]-3-phenyl-1,2-oxazolidine] displayed an IC50 of 1000 to 10000 nM.

Turning to `O=C(N1OCC[C@H]1c1ccc(F)cc1)C1(F)CC1` [Compound 34, (3S)-2-(1-Fluorocyclopropane-carbonyl)-3-(4-fluorophenyl)-1,2-oxazolidine], the IC50 was less than 1000 nM.

As for `O=C(N1OCC[C@H]1c1ccccc1)C1(C(F)(F)F)CC1` [Compound 54, (3S)-3-Phenyl-2-[1-(trifluoromethyl)cyclo-propanecarbonyl]-1,2-oxazolidine], the IC50 is less than 1000 nM.

In the case of `CC(C)(C)C(=O)N1OCC[C@@H]1c1ccc(F)cc1F` [Compound 134, 1-[(3R)-3-(2,4-difluorophenyl)-1,2-oxazolidin-2-yl]-2,2-dimethylpropan-1-one], the IC50 is less than 1000 nM.

`CC(C)(CC#N)C(=O)N1OCC[C@H]1c1ccc(C#N)cc1` [Compound 181, 4-[(3S)-2-(3-cyano-2,2-dimethylpropanoyl)-1,2-oxazolidin-3-yl]benzonitrile] gave an IC50 of less than 1000 nM.

With `CC(C)(COC(F)(F)F)C(=O)N1OCC[C@H]1c1ccc(F)cc1` [Compound 176, 1-[(3S)-3-(4-fluorophenyl)-1,2-oxazolidin-2-yl]-2,2-dimethyl-3-(trifluoromethoxy) propan-1-one], the concentration for half-maximal inhibition (IC50) was less than 1000 nM.

Turning to `Cc1ccc([C@@H]2CCON2C(=O)C(C)(C)C)cn1` [Compound 152, 2,2-dimethyl-1-[(3S)-3-(6-methylpyridin-3-yl)-1,2-oxazolidin-2-yl]propan-1-one], the IC50 was less than 1000 nM.

In turn, `O=C(C(C1CC1)C1CC1)N1OCC[C@H]1c1ccc(F)nc1` [Compound 167, 2,2-dicyclopropyl-1-[(3S)-3-(6-fluoropyridin-3-yl)-1,2-oxazolidin-2-yl]ethan-1-one] came in with an IC50 of less than 1000 nM.

Molecule `Cc1cnc([C@@H]2CCON2C(=O)C(C)C(F)(F)F)cn1` (single isomer, unassigned) [Compound 129] had an IC50 of less than 1000 nM.

`CC(CC#N)C(=O)N1OCC[C@H]1c1ccc(C#N)cc1` (single isomer, unassigned) [Compound 209] showed a concentration for half-maximal inhibition (IC50) of less than 1000 nM.

`CC(C)(C#N)C(=O)N1OCC[C@H]1c1ccc(F)cc1` [Compound 182, 3-[(3S)-3-(4-fluorophenyl)-1,2-oxazolidin-2-yl]-2,2-dimethyl-3-oxopropanenitrile]: the IC50 is less than 1000 nM.

`CC(C)(C)C(=O)N1OCC[C@@H]1c1cccc(F)c1` [Compound 82, (R)-1-(3-(3-fluorophenyl)isoxazolidin-2-yl)-2,2-dimethylpropan-1-one] registered an IC50 of 1000 to 10000 nM.

With `CC(C)(C)C(=O)N1OCC[C@H]1c1ccc(C2CC2)nc1` [Compound 148, 1-[(3S)-3-(6-cyclopropylpyridin-3-yl)-1,2-oxazolidin-2-yl]-2,2-dimethylpropan-1-one], the half-inhibitory concentration (IC50) was less than 1000 nM.

For the molecule `O=C(N1OCC[C@H]1c1ccc(F)nc1)C1(C(F)F)CCC1` [Compound 168, 5-[(3S)-2-[1-(difluoromethyl)cyclo-butanecarbonyl]-1,2-oxazolidin-3-yl]-2-fluoropyridine], the IC50 is less than 1000 nM.

Molecule `CC(C(=O)N1OCC[C@H]1c1ccc(F)nc1)C(F)(F)F` (single isomer, unassigned) [Compound 162] registered an IC50 of less than 1000 nM.
